Experimental data reported in ChEMBL document CHEMBL5052824, “Novel sesquiterpenoid analogs” (2020).
Activity calls are given as the source filed them. No cut-off for these calls is given here.

Key:
HeLa [1] = assay: Induction of DNA damage in human HeLa cells at 30 uM assessed as increase in gamma-H2AX level and measured by DAPI staining method relative to control; format: functional, cell-based
HeLa [2] = assay: Induction of DNA damage in human HeLa cells at 30 uM assessed as increase in gamma-H2AX level in presence of 30 uM etoposide and measured by DAPI staining method relative to control; format: functional, cell-based
[3] = Upregulation of POLE expression in POLE3 knocked down human HeLa cells and measured as fold change after 6 hrs; format: functional
HeLa [4] = assay: Downregulation of DNA ligase 3 expression in POLE3 knocked down human HeLa cells and measured after 6 hrs; format: functional, cell-based
HeLa [5] = assay: Downregulation of GIT2 expression in POLE3 knocked down human HeLa cells and measured after 6 hrs; format: functional, cell-based
HeLa [6] = assay: Downregulation of PEA15 expression in POLE3 knocked down human HeLa cells and measured after 6 hrs; format: functional, cell-based
HeLa [7] = assay: Downregulation of GEMIN2 expression in POLE3 knocked down human HeLa cells and measured after 6 hrs; format: functional, cell-based
HeLa [8] = assay: Induction of DNA damage in POLE3 knocked down human HeLa cells at 30 uM assessed as increase in gamma-H2AX level in presence of 30 uM etoposide and measured by DAPI staining method relative to control; format: functional, cell-based
[9] = biological target: T1, DNA polymerase epsilon subunit 3 (Homo sapiens) (UniProt Q9NRF9); assay: Binding affinity towards wild-type POLE3 overexpressed in human 293T cells measured after 1 hr by SDS-PAGE analysis; format: cell-based; details: HEK293T
T1 sequence (whole entry): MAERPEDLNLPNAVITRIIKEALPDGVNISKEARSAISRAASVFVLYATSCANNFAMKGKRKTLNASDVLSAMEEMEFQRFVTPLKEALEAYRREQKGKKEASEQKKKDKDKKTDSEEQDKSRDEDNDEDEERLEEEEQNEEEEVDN

MDA-MB-231 [10] = assay: Binding affinity to cysteine residue of protein in human MDA-MB-231 lysates at 30 uM incubated for 1 hr and measured in presence of cysteine-reactive reagent JW-RF-001 by SDS-PAGE analysis; format: subcellular
MDA-MB-231 [11] = assay: Binding affinity to cysteine residues of protein in human MDA-MB-231 lysates at 30 uM incubated for 1 hr and measured by SDS-PAGE analysis; format: subcellular

| Compound | Activity (HeLa [1]) | Activity (HeLa [2]) | fold change (FC) [3] | Activity (HeLa [4]) | Activity (HeLa [5]) | Activity (HeLa [6]) | Activity (HeLa [7]) | Activity (HeLa [8]) | Kinact [9] | Activity (MDA-MB-231 [10]) | Activity (MDA-MB-231 [11]) |
| --- | --- | --- | --- | --- | --- | --- | --- | --- | --- | --- | --- |
| C=C1C[C@@]2(C[C@H](C)[C@H]3CC=C(C)C(=O)[C@@H]3O2)OC1=O | inactive | Active | 4 | Active | Active | Active | Active | Active | 0.27 min⁻¹ | – | – |
| C=C1C[C@@]2(C[C@H](C)[C@H]3CC=C(CN=[N+]=[N-])C(=O)[C@@H]3O2)OC1=O | – | – | – | – | – | – | – | – | – | inactive | Active |
| COc1cc([C@@H]2c3cc4c(cc3[C@@H](O[C@@H]3O[C@@H]5CO[C@@H](C)O[C@H]5[C@H](O)[C@H]3O)[C@H]3COC(=O)[C@H]23)OCO4)cc(OC)c1O | Active | – | – | – | – | – | – | – | – | – | – |
